Source: PubChem BioAssay (NCI)
“And” between values parts separate entries of the source, which are not always exact repeats. Identical values can stand only once.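 Five concentrations, 48 hours, 96-well plates. Abbreviation: GI50, concentration required for 50% inhibition of growth. The concentration for full growth arrest is given as TGI.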

Columns and labels:
Assay in all cases: DTP human tumour cell line panel, 48 h
CAKI-1 renal = tested on: CAKI-1 renal
HL-60(TB) leukemia = tested on: HL-60(TB) leukemia
HS 578T breast = tested on: HS 578T breast
M14 melanoma = tested on: M14 melanoma
MDA-MB-231 breast = tested on: MDA-MB-231 breast
NCI-H226 lung = tested on: NCI-H226 lung
OVCAR-4 ovarian = tested on: OVCAR-4 ovarian
OVCAR-5 ovarian = tested on: OVCAR-5 ovarian
SN12C renal = tested on: SN12C renal
SR leukemia = tested on: SR leukemia

In the case of `C/C(=C\CCc1ccoc1)CC/C=C(\C)CCCN1CCC(CO)CC1`, the GI50 (CAKI-1 renal) is reported as 4.26 µM, the TGI (CAKI-1 renal) is reported as 16.5 µM and the GI50 (HL-60(TB) leukemia) is reported as 1.96 µM. For the same compound, the TGI (HL-60(TB) leukemia) was 3.95 µM, the GI50 (HS 578T breast) was 2.6 µM and the TGI (HS 578T breast) was 8.08 µM. For the same compound, the GI50 (M14 melanoma) was 1.94 µM, the TGI (M14 melanoma) was 3.92 µM and the GI50 (MDA-MB-231 breast) was 1.73 µM. For the same compound, the TGI (MDA-MB-231 breast) was 4.39 µM, the GI50 (NCI-H226 lung) was 6.16 µM and the TGI (NCI-H226 lung) was 22.3 µM. For the same compound, the GI50 (OVCAR-4 ovarian) was 3.28 µM, the TGI (OVCAR-4 ovarian) was 14.8 µM and the GI50 (OVCAR-5 ovarian) was 4.39 µM. It also gave a TGI (OVCAR-5 ovarian) of 18.6 µM, a GI50 (SN12C renal) of 4.54 µM and a TGI (SN12C renal) of 18.9 µM. For the same compound, the GI50 (SR leukemia) was 1.66 µM and the TGI (SR leukemia) was 4.29 µM.

`COc1cc([C@@H]2c3cc4c(cc3[C@H](O)[C@H]3COC(=O)[C@H]23)OCO4)cc(OC)c1OC` was tested, and the GI50 (CAKI-1 renal) was < 0.005 µM, the GI50 (HL-60(TB) leukemia) was < 0.01 µM and the TGI (HL-60(TB) leukemia) was < 0.005 µM. The GI50 (HS 578T breast) was < 0.01 µM, the TGI (HS 578T breast) was > 100 µM and 50 µM and > 94 µM and the GI50 (M14 melanoma) was < 0.005 µM. For the same compound, the GI50 (MDA-MB-231 breast) was < 0.01 µM, the GI50 (NCI-H226 lung) was < 0.01 µM and the GI50 (OVCAR-4 ovarian) was < 0.005 µM. For the same compound, the TGI (OVCAR-5 ovarian) was > 100 µM and 46.3 µM, the GI50 (SN12C renal) was < 0.005 µM and the TGI (SN12C renal) was > 100 µM and 35 µM. For the same compound, the GI50 (SR leukemia) was < 0.01 µM and the TGI (SR leukemia) was < 0.005 µM.

Work on `CC[CH2][Sn]([Cl])([Cl])[CH2]CC` yielded a GI50 (CAKI-1 renal) of 6.69 µM, a TGI (CAKI-1 renal) of 21 µM and a GI50 (HL-60(TB) leukemia) of 2.94 µM. For the same compound, the TGI (HL-60(TB) leukemia) was > 100 µM, the GI50 (HS 578T breast) was 6.13 µM and the TGI (HS 578T breast) was 28.4 µM. For the same compound, the GI50 (M14 melanoma) was 11.1 µM, the TGI (M14 melanoma) was 24.1 µM and the GI50 (MDA-MB-231 breast) was 5.16 µM. The TGI (MDA-MB-231 breast) was 18.9 µM, the GI50 (NCI-H226 lung) was 4.02 µM and the TGI (NCI-H226 lung) was 16.5 µM. It also gave a GI50 (OVCAR-4 ovarian) of 12.9 µM, a TGI (OVCAR-4 ovarian) of 25.6 µM and a GI50 (OVCAR-5 ovarian) of 16.6 µM. The TGI (OVCAR-5 ovarian) was 31 µM, the GI50 (SN12C renal) was 7.08 µM and the TGI (SN12C renal) was 20.2 µM. For the same compound, the GI50 (SR leukemia) was 3.38 µM and the TGI (SR leukemia) was 80.7 µM.

Compound `CC(=O)OC[C@]12CC[C@@H]([C@@H](C)C(N)=O)[C@@H]1[C@H]1CC[C@@H]3[C@@]4(C)CC[C@H](OC(C)=O)C(C)(C)[C@@H]4CC[C@@]3(C)[C@]1(C)CC2` has a GI50 (CAKI-1 renal) of 3.24 µM, a TGI (CAKI-1 renal) of 15.4 µM and a GI50 (HL-60(TB) leukemia) of 2.76 µM. For the same compound, the TGI (HL-60(TB) leukemia) was 8.4 µM, the GI50 (HS 578T breast) was 12.4 µM and the TGI (HS 578T breast) was 38.6 µM. For the same compound, the GI50 (M14 melanoma) was 7.38 µM, the TGI (M14 melanoma) was 31.6 µM and the GI50 (MDA-MB-231 breast) was 11.8 µM. It also gave a TGI (MDA-MB-231 breast) of 30.8 µM, a GI50 (NCI-H226 lung) of 7.28 µM and a TGI (NCI-H226 lung) of 23.9 µM. It also gave a GI50 (OVCAR-4 ovarian) of 4.72 µM, a TGI (OVCAR-4 ovarian) of 18.5 µM and a GI50 (OVCAR-5 ovarian) of 14.4 µM. It also gave a TGI (OVCAR-5 ovarian) of 32.2 µM, a GI50 (SN12C renal) of 5.65 µM and a TGI (SN12C renal) of 18.8 µM. The GI50 (SR leukemia) was 3.32 µM and the TGI (SR leukemia) was 23.5 µM.

`COC(=O)[C@@]1(C)CC[C@]2(C)CC[C@]3(C)C4=CC=C5C(=CC(=O)C(O)=C5C)[C@]4(C)CC[C@@]3(C)[C@@H]2C1` showed a GI50 (HL-60(TB) leukemia) of 0.163 µM, a TGI (HL-60(TB) leukemia) of 0.684 µM and a GI50 (HS 578T breast) of 0.289 µM. It also gave a TGI (HS 578T breast) of 1.52 µM, a GI50 (M14 melanoma) of 0.198 µM and a TGI (M14 melanoma) of 0.49 µM. It also gave a GI50 (MDA-MB-231 breast) of 0.171 µM, a TGI (MDA-MB-231 breast) of 0.395 µM and a GI50 (NCI-H226 lung) of 0.294 µM. It also gave a TGI (NCI-H226 lung) of 0.739 µM, a GI50 (OVCAR-4 ovarian) of 0.153 µM and a TGI (OVCAR-4 ovarian) of 0.424 µM. The GI50 (OVCAR-5 ovarian) was 0.44 µM, the TGI (OVCAR-5 ovarian) was 1.5 µM and the GI50 (SN12C renal) was 0.201 µM. For the same compound, the TGI (SN12C renal) was 0.507 µM, the GI50 (SR leukemia) was 0.19 µM and the TGI (SR leukemia) was 0.564 µM.

`CC[C@@H](C(=O)[C@@H](C)[C@@H](O)[C@H](C)[C@@H]1O[C@@H]([C@@H](CC)C(=O)O)CC[C@@H]1C)[C@H]1OC2(C=C[C@@H](O)[C@]3(CC[C@@](C)([C@H]4CC[C@](O)(CC)[C@H](C)O4)O3)O2)[C@H](C)C[C@@H]1C` (stereo partly drawn) was tested, and the GI50 (CAKI-1 renal) was 1.2 µM, the TGI (CAKI-1 renal) was > 50 µM and the GI50 (HL-60(TB) leukemia) was 0.0894 µM. For the same compound, the TGI (HL-60(TB) leukemia) was 0.316 µM, the GI50 (HS 578T breast) was 0.311 µM and the TGI (HS 578T breast) was > 50 µM. For the same compound, the GI50 (M14 melanoma) was 0.79 µM, the TGI (M14 melanoma) was 1.88 µM and the GI50 (MDA-MB-231 breast) was 0.239 µM. For the same compound, the TGI (MDA-MB-231 breast) was 17.1 µM, the GI50 (OVCAR-4 ovarian) was 3.01 µM and the TGI (OVCAR-4 ovarian) was 49.3 µM. For the same compound, the GI50 (OVCAR-5 ovarian) was 7.87 µM, the TGI (OVCAR-5 ovarian) was > 50 µM and the GI50 (SN12C renal) was 0.14 µM. For the same compound, the TGI (SN12C renal) was > 50 µM, the GI50 (SR leukemia) was 0.0815 µM and the TGI (SR leukemia) was 1.78 µM.

`O=C(NNC(=O)c1ccncc1)c1ccncc1` was tested, and the TGI (CAKI-1 renal) was > 100 µM, the TGI (HL-60(TB) leukemia) was > 100 µM and the TGI (HS 578T breast) was > 100 µM. The TGI (M14 melanoma) was > 100 µM, the TGI (MDA-MB-231 breast) was > 100 µM and the TGI (OVCAR-4 ovarian) was > 100 µM. The TGI (OVCAR-5 ovarian) was > 100 µM, the TGI (SN12C renal) was > 100 µM and the TGI (SR leukemia) was > 100 µM.

`COc1c(CNC(=O)CCl)cc2[nH]c(C)cc2c1CNC(=O)CCl` gave a GI50 (CAKI-1 renal) of 6.73 µM, a TGI (CAKI-1 renal) of 37 µM and a GI50 (HL-60(TB) leukemia) of 4.32 µM. For the same compound, the TGI (HL-60(TB) leukemia) was 26.5 µM, the GI50 (HS 578T breast) was 4.97 µM and the TGI (HS 578T breast) was 76.8 µM. For the same compound, the GI50 (MDA-MB-231 breast) was 6.12 µM, the TGI (MDA-MB-231 breast) was 41.3 µM and the GI50 (NCI-H226 lung) was 9.2 µM. It also gave a TGI (NCI-H226 lung) of 73.7 µM, a GI50 (OVCAR-4 ovarian) of 4.55 µM and a TGI (OVCAR-4 ovarian) of 22.3 µM. For the same compound, the GI50 (OVCAR-5 ovarian) was 5.44 µM, the TGI (OVCAR-5 ovarian) was 25.9 µM and the GI50 (SN12C renal) was 4.92 µM. The TGI (SN12C renal) was 39.9 µM, the GI50 (SR leukemia) was 4.36 µM and the TGI (SR leukemia) was > 100 µM.

`COc1ccc(Cc2cnc(NC(=O)c3sc4ccccc4c3Cl)s2)cc1` was tested, and the GI50 (CAKI-1 renal) was 0.487 µM, the TGI (CAKI-1 renal) was > 100 µM and the GI50 (HL-60(TB) leukemia) was 0.256 µM. For the same compound, the TGI (HL-60(TB) leukemia) was 0.642 µM, the GI50 (HS 578T breast) was 0.336 µM and the TGI (HS 578T breast) was > 100 µM. For the same compound, the GI50 (MDA-MB-231 breast) was 0.585 µM, the TGI (MDA-MB-231 breast) was > 100 µM and the GI50 (NCI-H226 lung) was 1.43 µM. The TGI (NCI-H226 lung) was > 100 µM, the GI50 (OVCAR-4 ovarian) was 2.82 µM and the TGI (OVCAR-4 ovarian) was > 100 µM. The GI50 (OVCAR-5 ovarian) was 0.587 µM, the TGI (OVCAR-5 ovarian) was > 100 µM and the GI50 (SN12C renal) was 0.687 µM. The TGI (SN12C renal) was > 100 µM, the GI50 (SR leukemia) was 0.31 µM and the TGI (SR leukemia) was > 100 µM.

`Nc1ccccc1NC(=O)c1ccc(CN2CCC/C(=C\c3cccc(Cl)c3)C2=O)cc1` showed a GI50 (HL-60(TB) leukemia) of 0.449 µM, a TGI (HL-60(TB) leukemia) of 4.89 µM and a GI50 (HS 578T breast) of 0.321 µM. The TGI (HS 578T breast) was > 100 µM, the GI50 (M14 melanoma) was 0.0521 µM and the TGI (M14 melanoma) was 13.7 µM. It also gave a GI50 (MDA-MB-231 breast) of 0.584 µM, a TGI (MDA-MB-231 breast) of 7.93 µM and a GI50 (NCI-H226 lung) of 2.01 µM. The TGI (NCI-H226 lung) was 7.06 µM, the GI50 (OVCAR-4 ovarian) was 1.49 µM and the TGI (OVCAR-4 ovarian) was > 100 µM. The GI50 (OVCAR-5 ovarian) was 0.45 µM, the TGI (OVCAR-5 ovarian) was > 100 µM and the GI50 (SN12C renal) was 0.708 µM. The TGI (SN12C renal) was 85.3 µM, the GI50 (SR leukemia) was 0.156 µM and the TGI (SR leukemia) was > 100 µM.
